Laboratory results from patent US20240000075A1, “FUNGICIDAL ARYL AMIDINES” (CORTEVA AGRISCIENCE LLC, priority 2020, published 2024).
Like-named read-outs stand apart in the source and are kept apart here.

Tests used:
Zymoseptoria tritici = experiment: Septoria leaf blotch of wheat, whole-plant fungicidal activity (SEPTTR); type: in vivo, Zymoseptoria tritici on wheat plants (variety 'Yuma'); settings: read-out: % Disease Control Rating SEPTTR
Procedure: Example A: Evaluation of Fungicidal Activity: Septoria Leaf Blotch of Wheat (Zymoseptoria tritici; Bayer Code […]) Technical grades of materials were dissolved in acetone, which were then mixed with nine volumes of water (H2O) containing 110 ppm Triton X-100. The fungicide solutions were applied onto wheat seedlings using an automated booth sprayer to run-off. All sprayed plants were allowed to air dry prior to further handling. All fungicides were evaluated using the aforementioned method for their activity vs. all target diseases, unless stated otherwise. Wheat plants (variety 'Yuma') were grown from seed in a greenhouse in soil-less potting mix until the first leaf was fully emerged, with 7-10 seedlings per pot. These plants were inoculated with an aqueous spore suspension of Zymoseptoria tritici either 3 days prior to fungicide treatment (3 day curative; 3DC) or 1 day after fungicide treatment (1 day protectant; 1DP). After inoculation the plants were kept in 100% relative humidity for three days to permit spores to germinate and infect the leaf. The plants were then transferred to a greenhouse for disease to develop. When disease symptoms were fully expressed on the 1st leaves of untreated plants, infection levels were assessed on a scale of 0 to 100 percent disease severity. Percent disease control was calculated using the ratio of disease severity on treated plants relative to untreated plants.

Puccinia triticina = experiment: Wheat brown rust, whole-plant fungicidal activity (PUCCRT); type: in vivo, Puccinia triticina on wheat plants (variety 'Yuma'); settings: 24 h, 1DP (1 day protectant), read-out: % Disease Control Rating PUCCRT
Procedure: Technical grades of materials were dissolved in acetone, which were then mixed with nine volumes of water (H2O) containing 110 ppm Triton X-100. The fungicide solutions were applied onto wheat seedlings using an automated booth sprayer to run-off. All sprayed plants were allowed to air dry prior to further handling. All fungicides were evaluated using the aforementioned method for their activity vs. all target diseases, unless stated otherwise.
Example B: Evaluation of Fungicidal Activity: Wheat Brown Rust (Puccinia triticina; Synonym: Puccinia recondita f sp. tritici; Bayer Code PUCCRT)
Wheat plants (variety ‘Yuma’) were grown from seed in a greenhouse in soil-less potting mix until the first leaf was fully emerged, with 7-10 seedlings per pot. These plants were inoculated with an aqueous spore suspension of Puccinia triticina after fungicide treatments. After inoculation, the plants were kept in a dark dew room with 100% relative humidity overnight to permit spores to germinate and infect the leaf. The plants were then transferred to a greenhouse for disease to develop. Fungicide formulation, application and disease assessment followed the procedures as described in Example A.

Phakopsora pachyrhizi = experiment: Asian soybean rust, whole-plant fungicidal activity (PHAKPA); type: in vivo; settings: read-out: % Disease Control Rating PHAKPA
Procedure: Example C: Evaluation of Fungicidal Activity: Asian Soybean Rust (Phakopsora pachyrhizi; Bayer Code […]) Technical grades of materials were dissolved in acetone, which were then mixed with nine volumes of H2O containing 0.011% Tween-20. The fungicide solutions were applied onto soybean seedlings using an automated booth sprayer to run-off. All sprayed plants were allowed to air dry prior to further handling. Soybean plants (variety 'Williams 82') were grown in soil-less potting mix, with one plant per pot. Ten-day-old seedlings were used for testing. Plants were inoculated as described in Example A. Plants were incubated for 24 h in a dark dew room with 100% relative humidity then transferred to a growth room for disease to develop. Fungicide formulation and application were made as described in Example A. When disease symptoms were fully expressed, disease severity was assessed on the sprayed leaves on a scale of 0 to 100 percent. Percent disease control was calculated using the ratio of disease severity on treated plants relative to untreated plants.

Rhynchosporium commune = experiment: Leaf blotch of barley, whole-plant fungicidal activity (RHYNSE); type: in vivo; settings: 24 h, 1DP (1 day protectant), read-out: % Disease Control Rating RHYNSE
Procedure: Technical grades of materials were dissolved in acetone, which were then mixed with nine volumes of water (H2O) containing 110 ppm Triton X-100. The fungicide solutions were applied onto wheat seedlings using an automated booth sprayer to run-off. All sprayed plants were allowed to air dry prior to further handling. All fungicides were evaluated using the aforementioned method for their activity vs. all target diseases, unless stated otherwise. Example D: Evaluation of Fungicidal Activity: Leaf Blotch of Barley (Rhynchosporium commune; Bayer Code […]) Barley plants (variety 'Harrington') were grown from seed in a greenhouse in soil-less potting mix until the first leaf was fully emerged, with 7-10 seedlings per pot. These plants were inoculated with an aqueous spore suspension of Rhynchosporium commune after fungicide treatments. After inoculation, the plants were kept in a dark dew room with 100% relative humidity for two days to permit spores to germinate and infect the leaf. The plants were then transferred to a greenhouse for disease to develop. Fungicide formulation and application were made as described in Example A. Disease assessment was conducted as described in Example A.

SMILES | pest or weed control at 200 ppm (Zymoseptoria tritici; 24 h, 1DP (1 day protectant)) [%] | pest or weed control at 200 ppm (Zymoseptoria tritici; 72 h, 3DC (3 day curative)) [%] | pest or weed control at 200 ppm (Puccinia triticina) [%] | pest or weed control at 200 ppm (Phakopsora pachyrhizi; 24 h, 1DP (1 day protectant)) [%] | pest or weed control at 200 ppm (Phakopsora pachyrhizi; 72 h, 3DC (3 day curative)) [%] | pest or weed control at 200 ppm (Rhynchosporium commune) [%]
CCN(C)/C=N/c1cc(C)c(C(=O)CC2CCC2)cc1C [Compound 27] | > 85 | 50 to 85 | > 85 | > 85 | > 85 | > 85
CCN(C)/C=N/c1cc(C)c(C(=O)CCC(F)(F)C(F)(F)F)cc1C [Compound 29] | 50 to 85 | 50 to 85 | > 85 | > 85 | > 85 | > 85
CCN(C)/C=N/c1cc(F)c(C(=O)CC2CCCC2)cc1C [Compound 30] | < 20 | < 20 | 50 to 85 | > 85 | > 85 | < 20
CCN(C)/C=N/c1cc(C)c(C(=O)Cc2cccc(C(=O)OC)c2F)cc1C [Compound 31] | > 85 | < 20 | > 85 | < 20 | < 20 | 50 to 85
CCN(C)/C=N/c1cc(C)c(C(=O)Cc2ccc(Cl)cc2F)cc1C [Compound 32] | > 85 | < 20 | > 85 | > 85 | > 85 | > 85
CCN(C)/C=N/c1cc(C)c(C(=O)Cc2ccccc2OC(F)(F)F)cc1C [Compound 33] | > 85 | 50 to 85 | > 85 | > 85 | > 85 | > 85
CCN(C)/C=N/c1cc(C)c(C(=O)Cc2cccc(OC(F)(F)F)c2)cc1C [Compound 34] | 50 to 85 | < 20 | > 85 | > 85 | > 85 | > 85
CCN(C)/C=N/c1cc(OC)c(C(=O)CC2CCCC2)cc1C [Compound 35] | 50 to 85 | < 20 | > 85 | > 85 | > 85 | > 85
CCN(C)/C=N/c1cc(C)c(C(=O)Cc2cccc(C(F)(F)F)c2F)cc1C [Compound 36] | – | < 20 | > 85 | > 85 | > 85 | 50 to 85
CCN(C)/C=N/c1cc(OC)c(C(=O)Cc2c(F)cc(F)cc2F)cc1C [Compound 37] | > 85 | 50 to 85 | > 85 | > 85 | > 85 | < 20
Cc1cc(C(=O)CC2CCCCC2)c(C)cc1/N=C/N(C)CC(F)(F)F [Compound 38] | < 20 | < 20 | < 20 | < 20 | < 20 | < 20
C=CCN(C)/C(S)=N/c1cc(C)c(C(=O)CC2CCCCC2)cc1C [Compound 45] | < 20 | < 20 | > 85 | 20 to 50 | 50 to 85 | < 20
Cc1cc(C(=O)CC2CCCCC2)c(C)cc1/N=C(\S)N(C)CC(F)(F)F [Compound 46] | < 20 | < 20 | < 20 | 20 to 50 | < 20 | < 20
Cc1cc(C(=O)CC2CCCCC2)c(C)cc1/N=C(\S)N(C)C(C)C [Compound 47] | > 85 | < 20 | > 85 | > 85 | > 85 | 20 to 50
Cc1cc(C(=O)CC2CCCCC2)c(C)cc1/N=C(\S)N(C)C1CCCCC1 [Compound 48] | < 20 | < 20 | < 20 | < 20 | < 20 | < 20
Cc1cc(C(=O)CC2CCCCC2)c(C)cc1/N=C(\S)N1CCCC1 [Compound 49] | 20 to 50 | < 20 | > 85 | > 85 | 50 to 85 | < 20
Cc1cc(C(=O)CC2CCCCC2)c(C)cc1/N=C(\S)N1CCCCC1 [Compound 50] | > 85 | 20 to 50 | > 85 | > 85 | > 85 | < 20
Cc1cc(C(=O)CC2CCCCC2)c(C)cc1/N=C(\S)N(C)c1ccccc1 [Compound 51] | 20 to 50 | < 20 | < 20 | < 20 | < 20 | < 20
Cc1cc(C(=O)CC2CCCCC2)c(C)cc1/N=C(\S)N(C)C [Compound 52] | 20 to 50 | < 20 | > 85 | > 85 | 50 to 85 | < 20
Cc1cc(C(=O)CC2CCCCC2)c(C)cc1/N=C(\S)N(C)Cc1ccccc1 [Compound 53] | < 20 | < 20 | < 20 | < 20 | < 20 | < 20
Cc1cc(C(=O)CC2CCCCC2)c(C)cc1/N=C(\S)N(C)C1CC1 [Compound 54] | > 85 | < 20 | > 85 | > 85 | 50 to 85 | < 20
CCN(CC)/C(S)=N/c1cc(C)c(C(=O)CC2CCCCC2)cc1C [Compound 55] | 50 to 85 | < 20 | > 85 | > 85 | > 85 | < 20
Cc1cc(C(=O)CC2CCCCC2)c(C)cc1/N=C/N(C)Cc1ccccc1 [Compound 56] | < 20 | < 20 | 20 to 50 | < 20 | < 20 | < 20
